Tested on: hNEPT
Assay: C-peptide content (ELISA, normalised to DNA) of hNEPT
Assay type: cell-based, human
Method: hNEPT culture: Human islets were isolated at the DRI's cGMP facility following methods already described54, and hNEPT samples (2-4 ml) were obtained as an isolation byproduct. The cells were washed and seeded on tissue culture-treated plates in FBS- and trypsin inhibitor-supplemented RPMI 1640 medium (Gibco-Life Technologies, Grand Island, N.Y.). After 48 h, floating cells were removed with fresh medium replacement. The following day, cultures were either treated with 100 ng/ml BMP-7 (ProSpec-Tany TechnoGene; Ness Ziona, Israel) or remained in the starting medium as controls. Cells were allowed to grow 4-5 days and then the serum-containing medium was replaced by serum-free Advanced RPMI 1640 (Gibco-Life Technologies, Grand Island, N.Y.). Four to five days later the cells were either subjected to static incubation to evaluate their ability to respond to changing glucose concentration or collected for further assessments (such as C-peptide content, immunohistochemistry or cellular composition) or transplantation.
Glucose-stimulated insulin release (GSIR) and total insulin determination: GSIR was performed in six-well plate cultures. BMP-7-treated samples and untreated controls were washed twice with DMEM medium containing 2.5 mM glucose (Low glucose medium or L-medium). Upon addition of 2 ml of the same medium, the cells were cultured for 1 h at 37° C. to bring their insulin secretion to baseline. After 2 more washes, 1 ml of L-medium was added and the cells were returned to the incubator for 1 h. At the end of incubation period, the medium was collected and the cells exposed for 1 h to 1 ml of 20 mM glucose DMEM medium (high glucose medium or H-medium). After the collection of the H-medium supernatant, the cells were washed three times with L-medium and cultured again in low glucose conditions for 1 h. As before, supernatant was collected at the end of the incubation period. The second low glucose incubation is necessary to confirm that the cells are responding to glucose concentration changes in a physiological manner and not dumping insulin. After the last incubation, the cells were collected, washed in PBS and lysed with 1 ml of T-Per (Thermo Scientific, Rockford, Ill.). The lysates and the supernatants from GSIR test were evaluated with ELISA for C-peptide content (Mercodia, Uppsala, Sweden) following manufacturer's instructions. DNA content of the lysates was used to normalize the results (Pico-Green dsDNA Assay Kit, Life Technologies-Molecular Probes, Grand Island, N.Y.).

c1cc(-c2cnn3cc(-c4ccc(OCCN5CCCCC5)cc4)cnc23)ccn1 [dorsomorphin, reference compound]
reduction of the BMP-7-mediated induction of C-peptide (dorsomorphin added to BMP-7, n=4): ~3 fold

B1: BMP-4: member of the BMPs family of proteins that signals through ALK3 and ALK6; SEQ ID NO:3 (protein, listed as Homo sapiens)
chain: SPKHHSQRARKKNKNCRRHSLYVDFSDVGWNDWIVAPPGYQAFYCHGDCPFPLADHLNSTNHAIVQTLVNSVNSSIPKACCVPTELSAISMLYLDEYDKVVLKNYQEMVVEGCGCR
modifications: fragment of BMP-4
C-peptide production induction vs. t=0 (BMP-4 vs BMP-7 comparison, n=6, P=0.43): 198±62.8 fold

Reference: patent publication US11466255B2, “Methods and compositions for converting non-endocrine pancreatic tissue into insulin-producing cells” (UNIVERSITY OF MIAMI, priority 2015, dated 2022)
